The target of assay [1] is T1, trypanothione reductase (Leishmania infantum, UniProt A4HSF7). The experiment in a line: X-ray crystal structure at […] Å. In kind it is biochemical.
The target of assay [2] is T1, trypanothione reductase. As to the kind of experiment: NADPH oxidation kinetics at […] nm, Lineweaver–Burk and Dixon plots. It is filed as biochemical.

The term Ki denotes a dissociation constant, usually derived from enzyme kinetics or from competition with a known ligand.

T1 sequence (A4HSF7 1-491): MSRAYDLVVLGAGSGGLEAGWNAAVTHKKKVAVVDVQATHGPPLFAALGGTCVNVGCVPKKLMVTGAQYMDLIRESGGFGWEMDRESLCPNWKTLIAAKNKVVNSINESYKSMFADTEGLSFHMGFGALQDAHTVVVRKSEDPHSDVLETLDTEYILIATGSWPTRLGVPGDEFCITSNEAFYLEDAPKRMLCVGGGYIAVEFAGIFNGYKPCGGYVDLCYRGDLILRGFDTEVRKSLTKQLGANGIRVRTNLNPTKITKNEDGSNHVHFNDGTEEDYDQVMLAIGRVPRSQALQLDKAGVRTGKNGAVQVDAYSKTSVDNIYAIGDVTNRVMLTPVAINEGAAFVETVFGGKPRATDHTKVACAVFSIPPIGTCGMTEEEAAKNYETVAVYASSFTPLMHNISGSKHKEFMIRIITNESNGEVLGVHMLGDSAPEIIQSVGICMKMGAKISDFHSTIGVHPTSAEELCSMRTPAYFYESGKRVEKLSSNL

In the case of `CC[P](CC)(CC)=[Au][S][C@@H]1O[C@H](COC(C)=O)[C@@H](OC(C)=O)[C@H](OC(C)=O)[C@H]1OC(C)=O` [AF, auranofin], affinity on trypanothione reductase [1] was put at a Ki of 0.155 ± 0.035 µM.
Compound `CCP(CC)CC.[Au+].[Cl-]` [CTPAu, Chloro(triethylphosphine)gold(I)] gave a Ki on trypanothione reductase [2] of 0.018 ± 0.007 µM.

Values taken from PMC3266496 (2011).
